From US8841269B2, “Polynucleotides for use in treating and diagnosing cancers” (Creighton University, priority 2010, dated 2014)
Entries after “also recorded” stand apart in the source; their conditions may differ.

Experiments:
[1] = tested on: 3′ UTR of human ER-α gene; experiment: Luciferase reporter assay, ER-α 3′ UTR let-7 binding site in pMIR-REPORT; assay type: cell-based; conditions: MCF7 cells; for luciferase activity, ER-α binding site in 3′UTR of luciferase: 60 nmol/L mimics, vs negative control miRNA; for luciferase activity, mutated ER-α binding sequence: mutated sequence in 3′UTR of luciferase
Description: Luciferase assay. A fragment of the 3′ UTR of human ER-α gene, which contains the putative let-7 target sites, was synthesized (IDT technology). With attached SpeI and HindIII restriction sites, the fragments are 48 by long. The sense strand was 5′-[…] (SEQ ID NO:39) while the antisense strand was 5′-[…] (SEQ ID NO:40). The cloning and transfection followed previous protocol (Hu et al., 2009, J Immunol 183:1617-24). Sixty nanomolar let-7 mimics, anti-let-7 inhibitors, pre-miR negative control #1 (AM17110, Ambion), or anti-miR negative control #1 (AM17010, Ambion) were transfected together with a 0.25 μg luciferase construct and a 0.25 μg β-galactosidase plasmid, which were used as a normalization reference. After 24 hour post-transfection, the luciferase activity was measured in a Veritas Microplate Luminometer (Turner Biosystems). Every treatment had 3 replicates. The luciferase activity was expressed as a fraction of negative control.

[2] = Real-time PCR quantification of mature let-7 after mimic transfection in MCF7; assay type: cell-based, human; conditions: for rank of forced expression throughout the time course: MCF7, relative quantity against RNU48
Procedure: Quantitative real-time PCR. For miRNA quantification in FFPE tissues, total RNA was extracted as described above; for miRNA quantification in cell lines, total RNA was isolated using mirVana miRNA Isolation Kit (Ambion Inc.). cDNA was synthesized by using 100 ng total RNA in a reaction volume of 15 μL, by following the protocol of Taqman miRNA Reverse Transcription Kit (Applied Biosystems). After 15 times dilution, 9 μL cDNA was used for real-time PCR in a 20 μL reaction volume, including 10 μL of master mix and 1 μL Taqman probe (Applied Biosystems). This reaction system only detects mature miRNAs not pre-miRNAs. The level of each miRNA was expressed following the 2^−ΔΔCt or […] method using the small nuclear RNA, RNU48, as the internal reference.
For FFPE tissues, there was the same repeat number as in microarray; for cell lines, there were three biological repeats. Each sample had three technical repeats on the PCR plate. Real-time PCR was performed on an Applied Biosystems 7900HT real-time PCR instrument. PCR was initiated by two holds of 52° C. 2 min and 94° C. 10 min each, followed by 40 cycles of 15 s at 95° C. and 1 min at 60° C.

MCF7 cells = experiment: Annexin-V binding assay for apoptosis in MCF7; assay type: cell-based, human
Procedure: Annexin-V binding assay for apoptosis. […] The staining followed the protocol of FITC Annexin V Apoptosis Detection Kit I (Cat #556547, BD Biosciences). Cell populations were analyzed with a BD FACSAria™ flow cytometer. Approximately 20,000 cells were counted for each sample.

[3] = tested on: 3′ UTR of human ER-α36 gene; experiment: Luciferase reporter assay, ER-α36 3′ UTR let-7 binding site in pMIR-REPORT; assay type: cell-based; conditions: MCF7 cells; for luciferase activity, ER-α36 3′-UTR binding site: 60 nmol/L mimics
Description: A fragment of the 3′ UTR of human ER-α36 gene, which harbors the putative let-7 target sites, was synthesized (IDT, Coralville, Iowa). With the SpeI and HindIII restriction sites at the ends, respectively, the sense strand is 5′-ctag[…] (SEQ ID NO:41) and the antisense strand is 5′-agct[…] (SEQ ID NO:42). The sense and antisense oligonucleotides were annealed and ligated into the SpeI/HindIII sites of the pMIR-REPORT luciferase vector (Ambion, Austin, Tex.). The sequences were verified by DNA sequencing. Transfection was performed in 24-well plate using Lipofectamine 2000 (Invitrogen). Let-7 mimics, anti-let-7 inhibitors, or negative controls were transfected with 0.25 μg luciferase construct and 0.25 μg β-galactosidase plasmid (Ambion) to check transfection efficiency. Twenty-four hours post-transfection, the luciferase activity was measured using Dual-Glo Luciferase Assay System (Promega, Fitchburg, Wis.) in Veritas Microplate Luminometer (Turner Biosystems, Sunnyvale, Calif.).

ER-α36 = experiment: Immunoblot of ER-α36 after transfection; assay type: cell-based, human; conditions: MDA-MB-231, two days post transfection of mimics
Procedure: Let-7 miRNA or negative control #1 miRNA of 60 nmol/L (Ambion, Austin, Tex.) was transfected into cells with the siPORT NeoFX reagent (Ambion, Austin, Tex.) following the manufacturer's protocol.
Cells were lysed with NP40 cell lysis buffer (250 mM NaCl, 50 mM Tris-HCl, pH 7.4, 5 mM EDTA, 50 mM NaF, 1 mM Na3VO4, 1% Nonidet P40, 1 mM PMSF, proteinase and phosphoproteinase inhibitor cocktails). The protein was also extracted from FFPE sections. FFPE sections (50 μm thick) were transferred into a microcentrifuge tube and treated with xylene, followed by vortexing vigorously for 10 seconds. After centrifugation and removal of supernatant, the sections were washed with xylene two more times, followed by one more wash with 1 mL of 100% ethanol. The resultant pellets were vacuum dried, then resuspended in 300 μL of 20 mM Tris-HCl (pH 8.0) and 2% SDS and homogenized. The samples were then boiled at 100° C. for 20 minutes and incubated at 60° C. for 1 hour. After centrifugation at 10,000 g for 15 min at 4° C., the supernatant protein was saved for immunoblot analysis.
After mixed with gel-loading buffer and boiled for 5 minutes, the protein samples were separated with 10% SDS-PAGE and transferred to a PVDF membrane (Millipore, Billerica, Mass.). […] Gel density was quantified with Quantity One and expressed as a relative value against β-actin. […]

[4] = MCF7, one day post transfection, 60 nmol/L each

| Substance | luciferase activity, ER-α binding site in 3′UTR of luciferase [1] | luciferase activity, mutated ER-α binding sequence [1] | expression of let-7b relative to let-7a and let-7i ([2]; MCF7, after 2 days) | mature let-7b level relative to let-7a ([2]; MCF7, after 6 days) | mature let-7b level relative to let-7a [2, 4] | mature let-7b level relative to let-7i [2, 4] | rank of forced expression throughout the time course [2] | apoptotic rate (MCF7 cells; MCF7, after 6 days) | apoptotic rate (MCF7 cells; MCF7, three days post-transfection) | luciferase activity, ER-α36 binding site [3] | luciferase activity, mutated ER-α36 binding sequence [3] | luciferase activity, ER-α36 3′-UTR binding site [3] | ER-α36 protein level (ER-α36) | effect on apoptosis (MCF7 cells; MCF7, after either 3 days or 6 days) |
| --- | --- | --- | --- | --- | --- | --- | --- | --- | --- | --- | --- | --- | --- | --- |
| let-7b: let-7b miRNA (mimic), 3′-UUGGUGUGUUGGAUGAUGGAGU-5′ (SEQ ID NO:8) (chemistry not given here; listed 3' to 5') | decreased the luciferase activity; also recorded: significantly inhibited the luciferase activity | abrogated the effects; also recorded: did not show inhibition | 2 | ~10 | ~20 | ~6 | highest expression | 28.6% | 7% | significantly inhibited the luciferase activity | abrogated the inhibitory effects; also recorded: did not show inhibition | about 60 % of the activity in the control cells | strongly inhibited; also recorded: inhibited |  |
| let-7i: let-7i miRNA (mimic), 3′-UUGUCGUGUUUGAUGAUGGAGU-5′ (SEQ ID NO:14) (chemistry not given here; listed 3' to 5') | decreased the luciferase activity; also recorded: significantly inhibited the luciferase activity | abrogated the effects; also recorded: did not show inhibition |  |  |  |  | in the middle |  |  | significantly inhibited the luciferase activity | abrogated the inhibitory effects; also recorded: did not show inhibition | about 60 % of the activity in the control cells | strongly inhibited; also recorded: inhibited | not significant |
